Consider 1 molecule from ChEMBL document CHEMBL1129311, “Antitumor agents. 166. Synthesis and biological evaluation of 5,6,7,8-substituted-2-phenylthiochromen-4-ones” (J Med Chem, 1996).

One series has as its system H9. In words: Effective dose against H9 cell lines. To be noted: Homo sapiens. Type of series: functional, cell-based.
The nature of series [1]: Therapeutic index valued has been determined in H9 cells. Type of series: cell-based. To be noted: human, read-out: Therapeutic index.

Molecules are shown by their SMILES.

With `O=c1cc(-c2ccccc2)oc2cc(O)cc(O)c12` [CHRYSIN], the EC50 with H9 is 5 µM. In addition, the selectivity ratio in series [1] was 9.

By EC50 is commonly meant the concentration at which the effect is half-maximal.
